PubChem BioAssay (NCI)
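Briefly, cells in 96-well plates were exposed to five compound concentrations for 48 h, and endpoints were estimated by linear interpolation. The concentration for 50% growth inhibition is given as GI50. TGI denotes the concentration required for complete inhibition of growth.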

Legend:
Experiment in all cases: NCI tumour cell line growth inhibition, 48 h; in the data active = GI50 below about 0.43 µM; inactive = the rest
[1] = system: LOX IMVI melanoma
[2] = system: NCI-H23 lung
[3] = system: IGROV1 ovarian
[4] = system: KM12 colon
[5] = system: HCC-2998 colon
[6] = system: HOP-92 NSCLC
[7] = system: K-562 leukemia
[8] = system: SK-OV-3 ovarian
[9] = system: NCI/ADR-RES ovarian
[10] = system: DU-145 prostate

O=C(O)c1ccc(O)c(N=Nc2cc(S(=O)(=O)O)c3ccccc3c2O)c1
> 100 µM: TGI [1] | TGI [2] | TGI [3] | TGI [4] | TGI [5] | TGI [6] | TGI [7]
> 10 µM: TGI [8]

Cc1c(C(=O)CC(=O)C(=O)Nc2ccc(Cl)c(Cl)c2)[n+](=O)c2ccccc2n1[O-]
> 100 µM: TGI [4] | TGI [6] | TGI [8]
67.3 µM: TGI [5]
96 µM: TGI [2]
57.2 µM: TGI [7]
53.2 µM: TGI [1]
50.8 µM: TGI [3]

Nc1ncnc(NC2C=C(CO)C(O)C2O)c1[N+](=O)[O-] (centres undefined)
> 100 µM: TGI [1] | TGI [2] | TGI [3] | TGI [4] | TGI [5] | TGI [7] | TGI [8]

CC(C)NCC(O)COC(=O)c1cccs1 (centres undefined)
> 100 µM: TGI [1] | TGI [2] | TGI [3] | TGI [4] | TGI [5] | TGI [6] | TGI [7] | TGI [8]

ClC1CCC2OOC1O2 (centres undefined)
> 100 µM: TGI [1] | TGI [2] | TGI [3] | TGI [4] | TGI [5] | TGI [6] | TGI [7] | TGI [8]

N/C(=N\N=C\c1cccs1)NO
> 100 µM: TGI [2] | TGI [3] | TGI [4] | TGI [5] | TGI [6] | TGI [7] | TGI [8]

CCc1ccccc1NC(=O)CCc1n[nH]c(=S)o1
> 100 µM: TGI [2] | TGI [3] | TGI [4] | TGI [5] | TGI [6] | TGI [7] | TGI [8]

COC(=O)C(C(=O)C(=O)Nc1ccccc1C(C)=O)c1nc2ccc(Cl)cc2[nH]c1=O (centres undefined)
> 100 µM: TGI [1] | TGI [2] | TGI [3] | TGI [4] | TGI [5] | TGI [6] | TGI [7] | TGI [8]

CN(C)C(=O)/N=c1\ss/c(=N\C(=S)N(C)C)n1-c1ccccc1
> 46 µM: TGI [1]
> 56.1 µM: TGI [7]
> 100 µM: TGI [2] | TGI [3] | TGI [4] | TGI [5] | TGI [6] | TGI [8]

O=C(Nc1ccccc1)Nc1cccc(-n2cc(-c3ccncc3)c(-c3ccc(O)c(Cl)c3)n2)c1
21.4 µM: TGI [2]
82.6 µM: TGI [9]
9.79 µM: TGI [5]
41.4 µM: TGI [3]
> 100 µM: TGI [10]
13.4 µM: TGI [7]
inactive: GI50 [1] 2.54 µM | GI50 [2] 3.82 µM | GI50 [3] 6.06 µM | GI50 [9] 6.49 µM | GI50 [4] 3.3 µM | GI50 [5] 3.19 µM | GI50 [7] 3.59 µM | GI50 [8] 6.02 µM | GI50 [10] 5.66 µM
10.5 µM: TGI [4]
40.7 µM: TGI [8]
25.6 µM: TGI [1]

CC1(C)OC(C(N)=O)=C(C(N)=O)O1
> 100 µM: TGI [1] | TGI [2] | TGI [3] | TGI [4] | TGI [5] | TGI [6] | TGI [7] | TGI [8]

Cn1cccc1-c1cc(-c2cccs2)[nH]c(=O)c1C#N
> 100 µM: TGI [1] | TGI [2] | TGI [3] | TGI [9] | TGI [4] | TGI [5] | TGI [7] | TGI [8] | TGI [10]
inactive: GI50 [1] > 100 µM | GI50 [2] > 100 µM | GI50 [3] 23 µM | GI50 [9] > 100 µM | GI50 [4] > 100 µM | GI50 [5] > 100 µM | GI50 [7] > 100 µM | GI50 [8] > 100 µM | GI50 [10] > 100 µM

COc1cc(-c2cc(=O)c3ccccc3o2)ccc1N
> 100 µM: TGI [1] | TGI [2] | TGI [3] | TGI [4] | TGI [5] | TGI [6] | TGI [7] | TGI [8]

CCC(C)OC(=O)C1C2CCC(O2)C1C(=O)O (centres undefined)
> 100 µM: TGI [2] | TGI [3] | TGI [4] | TGI [5] | TGI [6] | TGI [7] | TGI [8]
> 58.3 µM: TGI [1]

O=C(/C=C\c1cccc2ccccc12)c1cccs1
17.6 µM: TGI [4]
25.8 µM: TGI [6]
23.3 µM: TGI [3]
31.7 µM: TGI [8]
34.8 µM: TGI [2]
8.79 µM: TGI [7]
30 µM: TGI [5]

COC(=O)C(C(=O)C(=O)NC1=C(Cl)C(=O)c2ccccc2C1=O)c1csc(-n2nc(-c3ccccc3)cc2-c2ccccc2)n1 (centres undefined)
> 100 µM: TGI [1] | TGI [2] | TGI [3] | TGI [4] | TGI [5] | TGI [6] | TGI [7] | TGI [8]
